# Patent US20240390362A1, “METHODS OF TREATING ERYTHROPOIETIC PROTOPORPHYRIA, X-LINKED PROTOPORPHYRIA, OR CONGENITAL ERYTHROPOIETIC PORPHYRIA WITH A SOLID FORM OF BITOPERTIN” (Disc Medicine, Inc., priority 2021, published 2024)
# Experiments:
# Type in all cases: cell-based
# K562 clone-9 cells = experiment: Cell viability by Vi-CELL XR Complete System in EPP K562 model; settings: 96 hours incubation
# Protocol: 900 μL of K562 clone-9 cells at 2×10^5 cells/mL in IMDM media with 10% FBS and 1% PS were plated into a 24-well plate. After 24-hour incubation, 100 μL of compound in DMSO/media was added in different concentration. The final concentration of DMSO was 0.1%. The compound was incubated for 96 hours at 37° C. Cell viability and cell count were measured by Vi-CELL XR Complete System. Finally, the effect of the compound on PPIX level was determined by flow cytometry.
# clone 1-9 cells = experiment: LC/MS/MS of 5-ALA, PPIX and heme levels in the EPP K562 cellular model
# [1] = system: human cord blood-CD34+ cells; experiment: CD34+ cells transduced with FECH shRNA lentivirus, differentiated to erythroid cells; flow cytometry of PPIX and surface markers; settings: 100 nM, 9 days differentiation
# Protocol: To investigate the effects of GlyT1 inhibitors in human hematopoietic stem cells with an EPP phenotype, lentiviral vectors expressing shRNA of FECH were constructed (Table 4) and transduced at 25 MOI into human cord blood-CD34+ cells purchased from Stemexpress.
# Transduced CD34+ cells were differentiated in the presence of Bitopertin (100 nM) or DMSO control into erythroid cells for 9 days in StemSpan SFEM II media supplemented with StemSpan Erythroid Expansion Supplement. The erythroid cell antigen profile was analyzed using cytofluorimetric strategy with the following surface markers: CD71 (PE Mouse Anti-Human CD71, BD Biosciences), glycophoryin A (APC Mouse Anti-Human CD235a, BD Biosciences).
smiles,measurement,setting,value
"C[C@H](Oc1ccc(S(C)(=O)=O)cc1C(=O)N1CCN(c2ncc(C(F)(F)F)cc2F)CC1)C(F)(F)F [Bitopertin, [4-(3-fluoro-5-trifluoromethylpyridin-2-yl)piperazin-1-yl][5-methylsulfonyl-2-[((S)-2,2,2-trifluoro-1-methylethyl)oxy]phenyl]methanone]",effect on cell viability,K562 clone-9 cells,no negative effects
same,effect on Heme formation,clone 1-9 cells,minimal effect
same,"effect on erythroid cell surface markers (CD71, glycophorin A)",[1],no negative effects
